Measured values reported in patent US20120121591A1 (priority 2009, published 2012).

Assays:
Type in all cases: cell-based
hKv1.3 = hKv1.3 (Homo sapiens, UniProt P22001); assay: cell-based; details: Kv1.3 (IWQ) IC50 (nM, Avg)
[1] = system: IL-2 secretion from T cells in human whole blood; details: read-out: WB (IL-2) IC50 (nM, Avg)
[2] = system: IFN-g secretion from T cells in human whole blood; details: read-out: WB (IFNg) IC50 (nM, Avg)

Sequence of hKv1.3 (P22001 whole entry): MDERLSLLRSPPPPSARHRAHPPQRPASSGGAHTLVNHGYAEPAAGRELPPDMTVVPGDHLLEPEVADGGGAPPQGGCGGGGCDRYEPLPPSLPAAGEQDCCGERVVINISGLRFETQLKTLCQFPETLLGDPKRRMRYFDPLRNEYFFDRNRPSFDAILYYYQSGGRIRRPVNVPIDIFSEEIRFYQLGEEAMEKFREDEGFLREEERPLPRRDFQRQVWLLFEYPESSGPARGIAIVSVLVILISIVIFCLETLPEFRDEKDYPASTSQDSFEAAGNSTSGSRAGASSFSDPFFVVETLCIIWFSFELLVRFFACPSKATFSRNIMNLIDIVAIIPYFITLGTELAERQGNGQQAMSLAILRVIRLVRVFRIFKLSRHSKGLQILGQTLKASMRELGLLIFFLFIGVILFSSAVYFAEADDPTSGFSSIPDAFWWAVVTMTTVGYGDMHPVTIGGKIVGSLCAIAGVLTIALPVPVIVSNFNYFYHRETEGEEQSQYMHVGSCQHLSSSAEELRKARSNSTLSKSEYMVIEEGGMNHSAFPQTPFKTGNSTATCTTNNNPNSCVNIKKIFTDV

Row | Compound | IC50 (hKv1.3) | IC50 [1] | IC50 [2]
1 | CCCC[C@@H]1NC(=O)[C@H](CO)NC(=O)[C@H](Cc2c[nH]cn2)NC(=O)[C@H](CCCCN)NC(=O)[C@@H]2CSSC[C@@H]3NC(=O)[C@H]([C@@H](C)O)NC(=O)[C@H](CCCNC(=N)N)NC(=O)[C@H](CCCNC(=N)N)NC(=O)[C@H](CSSC[C@H](NC(=O)[C@H](CCCNC(=N)N)NC(=O)[C@H](CO)NC(=O)[C@H](CCCCN)NC(=O)[C@@H]4CCCN4C(=O)[C@H]([C@@H](C)CC)NC(=O)[C@H]([C@@H](C)O)NC(=O)[C@H](CC(=O)O)NC(=O)[C@H]([C@@H](C)CC)NC(=O)[C@@H](NC(=O)[C@H](CO)NC(=O)[C@@H](N)CCCNC(=N)N)CSSC[C@@H](C(N)=O)NC(=O)[C@H]([C@@H](C)O)NC(=O)CNC3=O)C(=O)N[C@@H]([C@@H](C)O)C(=O)N[C@@H](C)C(=O)N[C@@H](Cc3ccccc3)C(=O)N[C@@H](CCCCN)C(=O)N2)NC(=O)[C@H](Cc2ccccc2)NC(=O)[C@H](CO)NC(=O)[C@H](CC(C)C)NC(=O)[C@H](CCCNC(=N)N)NC(=O)[C@H](Cc2ccc(O)cc2)NC(=O)[C@H](CCCCN)NC1=O [[Lys16, Nle21,Arg30]ShK-amide] | 0.423 nM | 0.953 nM | 1.9 nM
2 | CC[C@H](C)[C@@H]1NC(=O)[C@@H](NC(=O)[C@H](CO)NC(=O)[C@@H](N)CCCNC(=N)N)CSSC[C@@H](C(=O)O)NC(=O)[C@H]([C@@H](C)O)NC(=O)CNC(=O)[C@@H]2CSSC[C@@H]3NC(=O)[C@H](CCN)NC(=O)[C@H](Cc4ccccc4)NC(=O)[C@H](C)NC(=O)[C@H]([C@@H](C)O)NC(=O)[C@H](CSSC[C@H](NC(=O)[C@H](Cc4ccccc4)NC(=O)[C@H](CO)NC(=O)[C@H](CC(C)C)NC(=O)[C@H](CCCNC(=N)N)NC(=O)[C@H](Cc4ccc(O)cc4)NC(=O)[C@H](CCCCN)NC(=O)[C@H](CCSC)NC(=O)[C@H](CO)NC(=O)[C@H](Cc4c[nH]cn4)NC(=O)[C@H](CCCCN)NC3=O)C(=O)N[C@@H](CCCNC(=N)N)C(=O)N[C@@H](CCCCN)C(=O)N[C@@H]([C@@H](C)O)C(=O)N2)NC(=O)[C@H](CCCNC(=N)N)NC(=O)[C@H](CO)NC(=O)[C@H](CCCCN)NC(=O)[C@@H]2CCCN2C(=O)[C@H]([C@@H](C)CC)NC(=O)[C@H]([C@@H](C)O)NC(=O)[C@H](CC(=O)O)NC1=O [[Dab16]ShK] | 0.082 nM | 0.086 nM | 0.223 nM
3 | CC[C@H](C)[C@@H]1NC(=O)[C@@H](NC(=O)[C@H](CO)NC(=O)[C@@H](N)CCCNC(=N)N)CSSC[C@@H](C(=O)O)NC(=O)[C@H]([C@@H](C)O)NC(=O)CNC(=O)[C@@H]2CSSC[C@@H]3NC(=O)[C@H](CCC(N)=O)NC(=O)[C@H](Cc4ccccc4)NC(=O)[C@H](C)NC(=O)[C@H]([C@@H](C)O)NC(=O)[C@H](CSSC[C@H](NC(=O)[C@H](Cc4ccccc4)NC(=O)[C@H](CO)NC(=O)[C@H](CCCCN)NC(=O)[C@H](CCCNC(=N)N)NC(=O)[C@H](Cc4ccc(O)cc4)NC(=O)[C@H](CCCCN)NC(=O)[C@H](CCSC)NC(=O)[C@H](CO)NC(=O)[C@H](Cc4c[nH]cn4)NC(=O)[C@H](CCCCN)NC3=O)C(=O)N[C@@H](CCCNC(=N)N)C(=O)N[C@@H](CCCCN)C(=O)N[C@@H]([C@@H](C)O)C(=O)N2)NC(=O)[C@H](CCCNC(=N)N)NC(=O)[C@H](CO)NC(=O)[C@H](CCCCN)NC(=O)[C@@H]2CCCN2C(=O)[C@H]([C@@H](C)CC)NC(=O)[C@H]([C@@H](C)O)NC(=O)[C@H](CC(=O)O)NC1=O [[Lys25]ShK] | 0.101 nM | 0.226 nM | 0.366 nM
4 | CCCC[C@@H]1NC(=O)[C@H](CO)NC(=O)[C@H](Cc2c[nH]cn2)NC(=O)[C@H](CCCCN)NC(=O)[C@@H]2CSSC[C@@H]3NC(=O)[C@H]([C@@H](C)O)NC(=O)[C@H](CCCNC(=N)N)NC(=O)[C@H](CCCCN)NC(=O)[C@H](CSSC[C@H](NC(=O)[C@H](CCCNC(=N)N)NC(=O)[C@H](CO)NC(=O)[C@H](CCCCN)NC(=O)[C@@H]4CCCN4C(=O)[C@H]([C@@H](C)CC)NC(=O)[C@H]([C@@H](C)O)NC(=O)[C@H](CC(=O)O)NC(=O)[C@H]([C@@H](C)CC)NC(=O)[C@@H](NC(=O)[C@H](CO)NC(=O)[C@@H](N)CCCNC(=N)N)CSSC[C@@H](C(N)=O)NC(=O)[C@H]([C@@H](C)O)NC(=O)CNC3=O)C(=O)N[C@@H]([C@@H](C)O)C(=O)N[C@@H](C)C(=O)N[C@@H](Cc3ccccc3)C(=O)N[C@@H](CCCCN)C(=O)N2)NC(=O)[C@H](Cc2ccccc2)NC(=O)[C@H](CO)NC(=O)[C@H](CC(C)C)NC(=O)[C@H](CCCNC(=N)N)NC(=O)[C@H](Cc2ccc(O)cc2)NC(=O)[C@H](CCCCN)NC1=O [[Lys16,29; Nle21,Arg30]ShK-amide] | 0.484 nM | 1.72 nM | 2.84 nM
5 | CC[C@H](C)[C@@H]1NC(=O)[C@@H](NC(=O)[C@H](CO)NC(=O)[C@@H](N)CCCNC(=N)N)CSSC[C@@H](C(=O)O)NC(=O)[C@H]([C@@H](C)O)NC(=O)CNC(=O)[C@@H]2CSSC[C@@H]3NC(=O)[C@H](CCC(N)=O)NC(=O)[C@H](Cc4ccccc4)NC(=O)[C@H](C)NC(=O)[C@H]([C@@H](C)O)NC(=O)[C@H](CSSC[C@H](NC(=O)[C@H](Cc4ccccc4)NC(=O)[C@H](CO)NC(=O)[C@H](CC(C)C)NC(=O)[C@H](CCCNC(=N)N)NC(=O)[C@H](Cc4ccc(O)cc4)NC(=O)[C@H](CCCCN)NC(=O)[C@H](CCSC)NC(=O)[C@H](CO)NC(=O)[C@H](Cc4c[nH]cn4)NC(=O)[C@H](CCCCN)NC3=O)C(=O)N[C@@H](CCCNC(=N)N)C(=O)N[C@@H](C)C(=O)N[C@@H]([C@@H](C)O)C(=O)N2)NC(=O)[C@H](CCCNC(=N)N)NC(=O)[C@H](CO)NC(=O)[C@H](CCCCN)NC(=O)[C@@H]2CCCN2C(=O)[C@H]([C@@H](C)CC)NC(=O)[C@H]([C@@H](C)O)NC(=O)[C@H](CC(=O)O)NC1=O [[Ala30]ShK] | 0.178 nM | 0.258 nM | 0.394 nM
6 | CC[C@H](C)[C@@H]1NC(=O)[C@@H](NC(=O)[C@H](CO)NC(=O)[C@@H](N)CCCNC(=N)N)CSSC[C@@H](C(=O)O)NC(=O)[C@H]([C@@H](C)O)NC(=O)CNC(=O)[C@@H]2CSSC[C@@H]3NC(=O)[C@H](CCC(N)=O)NC(=O)[C@H](Cc4ccccc4)NC(=O)[C@H](C)NC(=O)[C@H]([C@@H](C)O)NC(=O)[C@H](CSSC[C@H](NC(=O)[C@H](Cc4ccccc4)NC(=O)[C@H](CCCNC(=N)N)NC(=O)[C@H](CC(C)C)NC(=O)[C@H](CCCNC(=N)N)NC(=O)[C@H](Cc4ccc(O)cc4)NC(=O)[C@H](CCCCN)NC(=O)[C@H](CCSC)NC(=O)[C@H](CO)NC(=O)[C@H](Cc4c[nH]cn4)NC(=O)[C@H](CCCCN)NC3=O)C(=O)N[C@@H](CCCNC(=N)N)C(=O)N[C@@H](CCCCN)C(=O)N[C@@H]([C@@H](C)O)C(=O)N2)NC(=O)[C@H](CCCNC(=N)N)NC(=O)[C@H](CO)NC(=O)[C@H](CCCCN)NC(=O)[C@@H]2CCCN2C(=O)[C@H]([C@@H](C)CC)NC(=O)[C@H]([C@@H](C)O)NC(=O)[C@H](CC(=O)O)NC1=O [[Arg26]ShK] | 0.279 nM | 0.208 nM | 0.572 nM
7 | CC[C@H](C)[C@@H]1NC(=O)[C@@H](NC(=O)[C@H](CO)NC(=O)[C@@H](N)CCCNC(=N)N)CSSC[C@@H](C(=O)O)NC(=O)[C@H]([C@@H](C)O)NC(=O)CNC(=O)[C@@H]2CSSC[C@@H]3NC(=O)[C@H](CCC(N)=O)NC(=O)[C@H](Cc4ccccc4)NC(=O)[C@H](C)NC(=O)[C@H](CCCNC(=N)N)NC(=O)[C@H](CSSC[C@H](NC(=O)[C@H](Cc4ccccc4)NC(=O)[C@H](CO)NC(=O)[C@H](CC(C)C)NC(=O)[C@H](CCCNC(=N)N)NC(=O)[C@H](Cc4ccc(O)cc4)NC(=O)[C@H](CCCCN)NC(=O)[C@H](CCSC)NC(=O)[C@H](CO)NC(=O)[C@H](Cc4c[nH]cn4)NC(=O)[C@H](CCCCN)NC3=O)C(=O)N[C@@H](CCCNC(=N)N)C(=O)N[C@@H](CCCCN)C(=O)N[C@@H]([C@@H](C)O)C(=O)N2)NC(=O)[C@H](CCCNC(=N)N)NC(=O)[C@H](CO)NC(=O)[C@H](CCCCN)NC(=O)[C@@H]2CCCN2C(=O)[C@H]([C@@H](C)CC)NC(=O)[C@H]([C@@H](C)O)NC(=O)[C@H](CC(=O)O)NC1=O [[Arg13]ShK] | 0.149 nM | 0.503 nM | 0.629 nM
8 | CC[C@@H]1NC(=O)[C@H](CO)NC(=O)[C@H](Cc2c[nH]cn2)NC(=O)[C@H](CCCCN)NC(=O)[C@@H]2CSSC[C@@H]3NC(=O)[C@H]([C@@H](C)O)NC(=O)[C@H](CCCCN)NC(=O)[C@H](CCCNC(=N)N)NC(=O)[C@H](CSSC[C@H](NC(=O)[C@H](CCCNC(=N)N)NC(=O)[C@H](CO)NC(=O)[C@H](CCCCN)NC(=O)[C@@H]4CCCN4C(=O)[C@H]([C@@H](C)CC)NC(=O)[C@H]([C@@H](C)O)NC(=O)[C@H](CC(=O)O)NC(=O)[C@H](CCC(=O)O)NC(=O)[C@@H](NC(=O)[C@H](CO)NC(=O)[C@@H](N)CCCNC(=N)N)CSSC[C@@H](C(N)=O)NC(=O)[C@H]([C@@H](C)O)NC(=O)CNC3=O)C(=O)N[C@@H]([C@@H](C)O)C(=O)N[C@@H](C)C(=O)N[C@@H](Cc3ccccc3)C(=O)N[C@@H](CCCCN)C(=O)N2)NC(=O)[C@H](Cc2ccccc2)NC(=O)[C@H](CO)NC(=O)[C@H](CC(C)C)NC(=O)[C@H](CCCNC(=N)N)NC(=O)[C@H](Cc2ccc(O)cc2)NC(=O)[C@H](CCCCN)NC1=O [[Glu4, Lys16,Abu21]ShK-amide] | 0.33 nM | 1.11 nM | 1.76 nM
9 | CC[C@H](C)[C@@H]1NC(=O)[C@H]([C@@H](C)O)NC(=O)[C@H](CC(=O)O)NC(=O)[C@H](CCC(=O)O)NC(=O)[C@@H](NC(=O)[C@H](CO)NC(=O)[C@@H](N)CCCNC(=N)N)CSSC[C@@H](C(N)=O)NC(=O)[C@H]([C@@H](C)O)NC(=O)CNC(=O)[C@@H]2CSSC[C@@H]3NC(=O)[C@H](CCCCN)NC(=O)[C@H](Cc4ccccc4)NC(=O)[C@H](C)NC(=O)[C@H]([C@@H](C)O)NC(=O)[C@H](CSSC[C@H](NC(=O)[C@H](Cc4ccccc4)NC(=O)[C@H](CO)NC(=O)[C@H](CC(C)C)NC(=O)[C@H](CCCNC(=N)N)NC(=O)[C@H](Cc4ccc(O)cc4)NC(=O)[C@H](CCCCN)NC(=O)[C@H](CCSC)NC(=O)[C@H](CO)NC(=O)[C@H](Cc4c[nH]cn4)NC(=O)[C@H](CCCNC(=N)N)NC3=O)C(=O)N[C@@H](CCCCN)C(=O)N[C@@H](CCCNC(=N)N)C(=O)N[C@@H]([C@@H](C)O)C(=O)N2)NC(=O)[C@H](CCCNC(=N)N)NC(=O)[C@H](CO)NC(=O)[C@H](CCCCN)NC(=O)[C@@H]2CCCN2C1=O [[Glu4; Lys16, 29;Arg18, 30]ShK-amide] | 0.192 nM | 0.203 nM | 0.353 nM
